Laboratory results reported in patent US6310037A, “Method of controlling protozoan infections using syringomycin-family lipodepsipeptides” (Utah State University, priority 1999, dated 2001).
Values after ≈ are worked out from the molar mass of the structure shown. Where a SMILES comes first, the peptide text is derived from it. Bridges are numbered along the chain shown (N, C = ends). [ ]: non-standard residue; d: D form. The star is where a group is joined. Asp(3S-OH) = N[C@H](C(=O)O)[C@H](O)C(=O)O; Thr(4-Cl) = N[C@H](C(=O)O)[C@H](O)CCl; X1 = CCCCCCCCC[C@@H](O)CC(=O)*; dDab = NCC[C@@H](N)C(=O)O; Dab = NCC[C@H](N)C(=O)O; Dhb = C/C=C(\N)C(=O)O

How the values were obtained:
[1] = system: MDBK cells; experiment: Cytotoxicity of Syr-E to MDBK host cells (LDH assay, visual observation); type: cell-based, bovine; details: for Syr-E related cytotoxicity (LDH assay) compared to infected and untreated control: Syr-E 5, 10, 15, 20 μg/ml tested
Source text: Madin-Darby bovine kidney (MDBK) epithelial cells were also used to culture C. parvum in this study. Dulbecco's modified Eagle medium (DMEM) with 10% FBS was used for routine passage of MDBK cells purchased from American Type Collection for Culture (Rockville, Md.). Mycoplasma contamination was periodically checked with Hoechst staining (Uphoff et al., 1992). At confluence, MDBK cells were lifted from culture flasks with trypsin, enumerated, and redistributed to assay plates. Ninety-six well cell culture plates were employed to assess cytotoxicity of testing agents or the parasite or both to host cells using neutral red staining or lactic dehydrogenase (LDH) assay.
A volume of 10 μl/well culture supernatant was pipetted into a 96-well plate and mixed with 50 μl/well substrate solution containing 0.75 mM sodium pyruvate and 1 mg beta-NADH/ml. Following incubation at 37° C. for 30 min, the plate was added with 50 μl of 2,4-dinitrophenylhydrazine/well and kept at 25° C. for 20 min., and then the plate was added with a volume of 200 μl/well of 0.6 N NaOH, mixed well, and retained at 25° C. for 10 min. prior to being quantified by the Microplate Autoreader with a wavelength set at 515 nm.
A single concentration of Syr-E at 15 μg/ml was used to treat MDBK cells at pH 7 with C. parvum infection. Group 1 served as an infection control, receiving no Syr-E treatment. Syr-E was administered 1 day prior to parasite inoculation to groups 2, 4, and 5, at the inoculation day to groups 3-5, and 1 day post inoculation to groups 3 and 5, respectively. Following specified administration day(s), supernatants of corresponding wells containing Syr-E were removed and replaced with fresh DMEM base. Cytotoxicity was monitored using lactic dehydrogenase (LDH) assay on day 1 post inoculation. Three coverslips from each group were collected on days 2 and 5 post inoculation, were fixed, and were stained with the specific IFA, as described with reference to Example II.
Group 1 received neither Syr-E treatment nor inoculation and its cytotoxicity was set at 0%, as illustrated on day 2. Group 2 received only C. parvum inoculation serving as an infection control. Groups 3-6 received both the inoculation and Syr-E treatments at 5, 10, 15, and 20 μg/ml, respectively. Data in FIG. 4 are presented as the means +/- standard errors of the mean. […] Cytotoxicity of Syr-E to host cells was measured using LDH assay on both days 1 and 2 post inoculation. More (P<0.01) cytotoxicity was shown on day 1 post inoculation than day 2 post inoculation. […] Overall, more cytotoxicity was observed as Syr-E concentrations increased.

[2] = system: P. falciparum W2; type: cell-based; details: W2 isolate, pH 7.0, 66 hour incubation
Source text: (§1) P. falciparum used in this study were two well characterized clones, W2 and D6, as described in Oduola, A. M. et al., Plasmodium falciparum: cloning by single-erythrocyte micromanipulation and heterogeneity in vitro; Exp. Parasitol. 66, 86-95 (1988), the contents of which are incorporated herein by this reference. W2 is a clone of the Indochina I isolate and is resistant to chloroquine and pyrimethamine, but susceptible to mefloquine. D6 is a clone from the Sierra I/UNC isolate and is susceptible to chloroquine and pyrimethamine, but has reduced susceptibilities to mefloquine and halofantrine.
(§2) The susceptibility of P. falciparum to Syr-E was studied using a modified antimalarial drug susceptibility screen following the procedures published by Desjardins et al., Quantitative assessment of antimalarial activity in vitro by semiautomated microdilution technique (1979), with modifications developed by Milhous et al., In vitro strategies for circumventing antimalarial drug resistance, Prog. […]
(§3) Syr-E was dissolved directly in dimethylsulfoxide (DMSO) and diluted 400 fold with complete culture media and started at a highest concentration of 50,000 ng/ml. […] The filter mats were then counted in a scintillation counter and the data downloaded with custom, automated analysis software (developed at the Walter Reed Army Institute of Research). […]

[3] = system: P. falciparum D6; type: cell-based; details: D6 isolate, pH 7.0, 66 hour incubation
Source text: as §1, §2, §3

Question: With `C/C=C1\NC(=O)[C@H](Cc2ccccc2)NC(=O)[C@H](CCCNC(=N)N)NC(=O)[C@H](CCN)NC(=O)[C@@H](CCN)NC(=O)[C@@H](CO)NC(=O)[C@@H](NC(=O)C[C@H](O)CCCCCCCCC)COC(=O)[C@H]([C@H](O)CCl)NC(=O)[C@H]([C@H](O)C(=O)O)NC1=O` [Syr-E, Syringomycin-E] (X1-S[dS][dDab][Dab]RF[Dhb][Asp(3S-OH)][Thr(4-Cl)]; ester 1-C) as the molecule, how does the visual cell damage ([1]; Syr-E 15 μg/ml, MDBK cells, pH 7, Table 1 schedule) read?
Answer: Its visual cell damage is “no visual cell damage observed”.

Question: And the “cytotoxicity by LDH assay, treatment schedule groups vs untreated control” value ([1]; Syr-E 15 μg/ml, MDBK cells, pH 7, day 1 post inoculation, Table 1 schedule)?
Answer: Its value is “failed to show significant differences between groups except group 3”.

Question: What about the “visible cell damage on cell monolayers” value ([1]; Syr-E 5-20 μg/ml, MDBK cells, pH 7.0) of the same molecule?
Answer: The value was “No obvious cell peeling or plaques formed on cell monolayers”.

Question: What about the “Syr-E related cytotoxicity (LDH assay) compared to infected and untreated control” value ([1]; pH 7.0, day 1 post inoculation) of the same molecule?
Answer: Its value is “cytotoxicity appeared at 20 μg/ml on day 1 post inoculation”.

Question: What about the “Syr-E related cytotoxicity (LDH assay) compared to infected and untreated control” value ([1]; pH 7.0, day 2 post inoculation) of the same molecule?
Answer: The value was 15 and 20 μg/ml on day 2 post inoculation.

Question: What about the IC50 [2] of the same molecule?
Answer: Its IC50 is 3.23 µg/mL (≈ 2.64 µM).

Question: What about the IC50 [3] of the same molecule?
Answer: The IC50 was 3.03 µg/mL (≈ 2.47 µM).
